The results in this text go back to paper PMC12041370, “AARS2-catalyzed lactylation induces follicle development and premature ovarian insufficiency” (Cell Death Discovery, 2025).

In experiment [1] the target is T1, AARS2 (Homo sapiens, UniProt Q5JTZ9).
T1 construct: full-length human AARS2 985 aa
T1 sequence (Q5JTZ9 11-985): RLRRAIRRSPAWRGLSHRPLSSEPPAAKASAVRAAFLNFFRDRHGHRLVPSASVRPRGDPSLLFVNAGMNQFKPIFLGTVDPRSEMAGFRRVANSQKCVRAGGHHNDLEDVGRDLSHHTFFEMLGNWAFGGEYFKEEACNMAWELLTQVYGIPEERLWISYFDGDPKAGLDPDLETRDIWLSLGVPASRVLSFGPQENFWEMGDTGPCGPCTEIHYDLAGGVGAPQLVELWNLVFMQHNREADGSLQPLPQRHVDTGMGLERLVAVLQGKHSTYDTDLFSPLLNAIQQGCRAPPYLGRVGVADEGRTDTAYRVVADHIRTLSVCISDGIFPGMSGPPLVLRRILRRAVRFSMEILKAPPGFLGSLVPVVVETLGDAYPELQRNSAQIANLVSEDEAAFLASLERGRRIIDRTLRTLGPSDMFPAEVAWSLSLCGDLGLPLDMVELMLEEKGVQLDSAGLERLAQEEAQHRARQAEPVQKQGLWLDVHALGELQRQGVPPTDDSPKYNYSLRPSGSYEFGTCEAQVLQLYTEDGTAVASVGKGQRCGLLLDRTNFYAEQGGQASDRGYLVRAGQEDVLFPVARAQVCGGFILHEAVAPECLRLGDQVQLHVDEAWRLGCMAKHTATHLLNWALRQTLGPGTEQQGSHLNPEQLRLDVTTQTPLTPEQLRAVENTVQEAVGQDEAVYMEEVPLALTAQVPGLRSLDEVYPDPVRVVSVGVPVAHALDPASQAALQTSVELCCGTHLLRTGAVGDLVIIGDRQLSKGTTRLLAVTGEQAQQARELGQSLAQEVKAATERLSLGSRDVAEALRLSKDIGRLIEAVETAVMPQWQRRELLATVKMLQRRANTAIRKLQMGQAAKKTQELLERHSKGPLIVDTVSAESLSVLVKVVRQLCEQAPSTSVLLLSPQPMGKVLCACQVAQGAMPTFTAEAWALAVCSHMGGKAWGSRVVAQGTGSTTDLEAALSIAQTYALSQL
The experiment in a line: in vitro lactylation of PDHA1 and CPT2, Western blot. Type of experiment: biochemical. The settings on record: β-alanine in reaction mix, concentration not told. For orientation: In western blotting, separated proteins are transferred to a membrane and probed.

In experiment [2] the target is T1, AARS2. The experiment is described as follows: isothermal titration calorimetry (Microcal). Type of experiment: binding. Conditions: read-out: K. From the text: isothermal titration calorimetry (Microcal) on AARS2 | The parameters of lactate binding to AARS2 were as follows
On the technique in general: ITC needs no label: the signal is the heat of the interaction.

Experiment [3] deals with T2, AARS2 (Homo sapiens, UniProt Q5JTZ9, R199C).
T2 construct: full-length human AARS2 985 aa
T2 sequence (Q5JTZ9 11-985 R199C): T1 sequence (Q5JTZ9 11-985) with R189C
The experiment in a line: isothermal titration calorimetry (Microcal). Type of experiment: binding. Conditions: read-out: K. An excerpt:
isothermal titration calorimetry (Microcal) on AARS2 | For lactate binding to the R199C mutant, the parameters were as follows

Substitutions are numbered along the chain they refer to.

As to `NCCC(=O)O` [β-alanine], the inhibition result against AARS2 [1] is “β-alanine inactivated lactyltransferase activities of both AARS2 and R199C”.

For `C[C@H](O)C(=O)O` [lactate], the Kd fell in the range of 8.23 to 17.9 µM on AARS2 [2] and 2.6 to 3.7 µM on AARS2 [3].
